Values after ≈ are worked out from the molar mass of the structure shown. Like-named read-outs stand apart in the source and are kept apart here. Where a SMILES comes first, the peptide text is derived from it. Bridges are numbered along the chain shown (N, C = ends).
Tests used:
[1] = tested on: Salmonella enterica ATCC 13076; test: microbe, parasite or virus in culture; format: cell-based; settings: for MIC: read-out: MIC S. enterica
Description: (§1) E. coli, S. aureus, and S. enterica were cultured in nutrient broth at 37 °C. Listeria was cultured in brain heart infusion broth at 37 °C. Bacteria at early log phase (OD600 ≈ 0.1) were incubated with the peptides at different concentrations (100–3.12 µM) for 4–6 h. After the incubation period, the bacterial culture medium was diluted at different ratios (1 in 2000–2,000,000) in sterile PBS and was spread on blood agar (BA) plates. BA plates were incubated at 37 °C for 24 h, and the number of colonies formed was counted to determine cell viability.

[2] = tested on: Staphylococcus aureus ATCC 25923; test: microbe, parasite or virus in culture; format: cell-based
Description: as §1

[3] = tested on: Escherichia coli ATCC 25922; test: microbe, parasite or virus in culture; format: cell-based
Description: as §1

[4] = tested on: E. coli (ATCC 25922GFP) in Caco-2 cells; test: Bacterial infection of Caco-2 cells; format: cell-based, Escherichia coli; settings: 400,000 CFU/mL GFP-expressing E. coli, 5 µM peptide, 5 h, fluorescence microscopy
Description: Caco-2 cells grown in six-well plates were also infected with E. coli (ATCC 25922GFP) at a CFU of 400,000 cells/mL. Cells were then incubated with 5 µM of TAMRA-labeled peptides for 5 h and were observed under fluorescence microscope for the presence of fluorescent bacteria.

[5] = tested on: Listeria monocytogenes ATCC 19115; format: cell-based
Description: as §1

[6] = tested on: chicken red blood cell suspension; test: Hemolysis assay; format: cell-based; settings: eukaryotic cells (cytotoxicity and hemolysis at 100 µM) versus antibacterial IC50
Description: A chicken red blood cell suspension was purchased from Cedarlane (Burlington, CA). RBCs were incubated with a 100 µM concentration of each peptide at 37 °C for 4 h. Triton-X was used as a positive control to achieve total hemolysis of RBCs. Percentage hemolysis was determined in triplicate by centrifuging down the RBC suspension and by measuring the absorbance of the supernatant at 540 nm. (2) % Hemolysis=Absorbance of sample @540nm /Absorbance of positive control @540nm×100%.

Bacillus subtilis = test: Bacterial uptake of TAMRA-labeled peptides; format: cell-based; settings: 5 µM, up to 5 h, log phase culture, fluorescence of free peptide in supernatant, triplicate
Description: (§2) TAMRA-conjugated peptides were used for cellular uptake studies. Liquid cultures of E. coli and Bacillus subtilis at log phase (OD600 ≈ 0.3–0.4) were incubated with TAMRA-labeled peptides (5 µM), and the percentage uptake of peptides was determined in triplicate for 5 h by measuring the fluorescence of free peptide in the supernatant of bacteria at […] wavelengths of 579 and 546 nm. (1) % Uptake=100−Fluorescence of supernatant/Initial fluorescence of sample×100%

E. coli = test: Bacterial uptake of TAMRA-labeled peptides; format: cell-based, Escherichia coli; settings: 5 µM, up to 5 h, log phase culture, fluorescence of free peptide in supernatant, triplicate
Description: as §2

[7] = tested on: DF-1 chicken embryonic fibroblasts; test: Cytotoxicity assay (MTS); format: cell-based; settings: 100 µM peptide, 24 h, triplicate
Description: (§3) DF-1 chicken embryonic fibroblasts were cultured in DMEM containing 8% FBS and 2% CS. Caco-2 cells were cultured in EMEM containing 20% FBS. Cells in growth phase (~70% confluency) were incubated with a 100 µM concentration of each peptide for 24 h. Cell viability was determined in triplicate by MTS assay using the CellTiter 96® AQueous Cell Proliferation Assay, as per the manufacturer’s protocol.

Caco-2 cells = test: Cytotoxicity assay (MTS); format: cell-based, human; settings: 100 µM peptide, 24 h, triplicate
Description: as §3

[8] = tested on: Caco-2 human colorectal adenocarcinoma cells; test: Cellular uptake of TAMRA-labeled peptides (flow cytometry, fluorescence microscopy); format: cell-based; settings: 5 h
Description: Caco-2 human colorectal adenocarcinoma cells were cultured to growth phase (~70% confluency) in EMEM containing 20% FBS and were treated with 5 µM of TAMRA-labeled peptides for 5 h. The uptake of fluorescently labeled peptide in Caco-2 human colorectal adenocarcinoma cells was measured by flow cytometry using BD FACS Calibur (BD Biosciences (Franklin Lakes, NJ, USA)) and by fluorescence microscopy.

IC50 ([1]; Salmonella enterica, ATCC13076, early log phase (OD600 ≈ 0.1), nutrient broth 37 °C, peptide 100–3.12 µM for 4–6 h, colony count on blood agar after 24 h, read-out: IC50 S. enterica)	MIC ([1]; Salmonella enterica, ATCC13076, early log phase, nutrient broth 37 °C, 4–6 h, colony count on blood agar)	IC50 ([2]; Staphylococcus aureus, ATCC25923, early log phase (OD600 ≈ 0.1), nutrient broth 37 °C, peptide 100–3.12 µM for 4–6 h, colony count on blood agar after 24 h, read-out: IC50 S. aureus)	IC50 ([3]; Escherichia coli, ATCC25922, early log phase (OD600 ≈ 0.1), nutrient broth 37 °C, peptide 100–3.12 µM for 4–6 h, colony count on blood agar after 24 h, read-out: IC50 E. coli)	Structure (SMILES)	reduction of bacterial infection of Caco-2 cells [4]	IC50 ([1]; ATCC 13076)	MIC ([1]; ATCC 13076)	IC50 ([2]; ATCC 25923)	MIC S. aureus ([2]; ATCC 25923)	IC50 ([3]; ATCC 25922)	MIC E. coli ([3]; ATCC 25922)	IC50 [5]	MIC L. monocytogenes [5]	nontoxic and hemocompatible concentration as fold of the IC50 of the peptide [6]	uptake of TAMRA-labeled peptide in B. subtilis (Bacillus subtilis)	uptake of TAMRA-labeled peptide in E. coli (E. coli)	viability of DF-1 fibroblasts [7]	viability of Caco-2 intestinal epithelial cells (Caco-2 cells)	% fluorescent cells (cellular uptake) ([8]; Caco-2, 5 µM TAMRA-labeled peptide, flow cytometry)	uptake of fluorescent peptide seen by fluorescence microscopy ([8]; Caco-2, TAMRA-labeled peptide)
7 µM	13.5 µM (≈ 4.72 µg/mL)	3.6 µM	15.2 µM	CC1(C)S[C@@H]2[C@H](NC(=O)[C@H](N)c3ccccc3)C(=O)N2[C@H]1C(=O)O [Ampicillin, reference compound]	–	–	–	–	–	–	–	–	–	–	–	–	–	–	–	–
–	–	–	–	CC[C@H](C)[C@@H]1NC(=O)[C@H](CCCNC(=N)N)NC(=O)[C@H](Cc2ccccc2)NC(=O)[C@H](CCCCN)NC(=O)[C@H](Cc2ccccc2)NC(=O)[C@H](CCCNC(=N)N)NC(=O)[C@@H](N)CSSC[C@@H](C(N)=O)NC(=O)[C@H]([C@@H](C)CC)NC(=O)[C@H](C(C)C)NC1=O [mCA4-5] (H-CRFKFRIVIC-NH2; disulfide 1-10)	actively contained and reduced bacterial infections	10.2 µM	30 µM (≈ 38.5 µg/mL)	4 µM	15 µM (≈ 19.2 µg/mL)	15.1 µM	40 µM (≈ 51.3 µg/mL)	5.2 µM	10 µM (≈ 12.8 µg/mL)	> 6 fold	–	–	–	–	–	–
–	–	–	–	N=C(N)NCCC[C@@H]1NC(=O)[C@H](CCCNC(=N)N)NC(=O)[C@H](CCCNC(=N)N)NC(=O)[C@@H](N)CSSC[C@@H](C(N)=O)NC(=O)[C@H](Cc2c[nH]cn2)NC(=O)[C@@H]2CCCN2C(=O)[C@H](CO)NC(=O)CNC1=O [mCA4-4] (H-CRRRGSPHC-NH2; disulfide 1-9)	unable to reduce the bacterial burden	–	–	–	–	–	–	–	–	–	taken up well	taken up well	did not compromise the viability	did not compromise the viability	19%	weak fluorescence

— article PMC8467575, “Bacterial-Specific Aggregation and Killing of Immunomodulatory Host Defense Peptides” (Pharmaceuticals, 2021)
